In ChEMBL document CHEMBL1141690, “New PPARgamma ligands based on barbituric acid: virtual screening, synthesis and receptor binding studies” (Bioorg Med Chem Lett, 2008) one finds inhibition and IC50 data, which are given here for 14 molecules.

Test [1] concerns the target T1, Peroxisome proliferator-activated receptor gamma (Mus musculus) (UniProt P37238).
T1 sequence (whole entry): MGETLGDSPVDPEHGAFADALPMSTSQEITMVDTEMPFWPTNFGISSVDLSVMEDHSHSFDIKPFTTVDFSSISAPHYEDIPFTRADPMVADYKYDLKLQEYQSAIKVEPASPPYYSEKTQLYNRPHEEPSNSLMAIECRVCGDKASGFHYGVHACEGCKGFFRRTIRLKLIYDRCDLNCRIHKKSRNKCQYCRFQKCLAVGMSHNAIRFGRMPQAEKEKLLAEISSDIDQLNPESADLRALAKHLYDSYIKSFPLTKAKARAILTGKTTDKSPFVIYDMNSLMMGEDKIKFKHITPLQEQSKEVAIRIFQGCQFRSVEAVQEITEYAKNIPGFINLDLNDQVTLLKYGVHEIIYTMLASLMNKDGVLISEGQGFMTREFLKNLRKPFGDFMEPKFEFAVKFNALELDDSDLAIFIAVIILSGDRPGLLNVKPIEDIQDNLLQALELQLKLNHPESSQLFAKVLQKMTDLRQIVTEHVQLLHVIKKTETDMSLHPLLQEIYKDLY
Briefly: Displacement of [3H]rosiglitazone from mouse PPARgamma receptor at 10 uM by scintillation proximation assay. (Loss of bound radioactivity is the signal in a displacement assay; it reports binding, not function.)

Test [2] concerns the target T2, Peroxisome proliferator-activated receptor gamma (Mus musculus, UniProt P37238).
T2 sequence (P37238 whole entry): T1 sequence (whole entry)
Briefly: Displacement of [3H]rosiglitazone from mouse PPARgamma receptor by scintillation proximation assay.

Usually inhibition stands for the relative decrease from the control value, in per cent. A high value points to a strong effect. By IC50 is commonly meant the concentration needed to halve the response being measured. Read a high IC50 as a need for much substance.

In test [1], `Cc1ccc(OCCOc2ccc(C=C3C(=O)NC(=O)NC3=O)cc2)cc1` returned an inhibition of less than 20%. The same measure, in the same setting: with `CC(C)c1ccc(OCCCOc2ccc(C=C3C(=O)NC(=O)NC3=O)cc2)cc1` the figure was less than 20%. `O=C1NC(=O)C(=Cc2ccc(OCCN3c4ccccc4Oc4ccccc43)cc2)C(=O)N1` came in with a concentration for half-maximal inhibition (IC50) in test [2] of 500 nM. The same measure, in the same setting: the figure for `Cc1ccc(OCCOc2cccc(C=C3C(=O)NC(=O)NC3=O)c2)cc1` is 800 nM. Same read-out and setting: the figure for `N#Cc1ccc(OCCOc2ccc(C=C3C(=O)NC(=O)NC3=O)cc2)cc1` is 200 nM; for `COc1ccc(OCCOc2ccc(C=C3C(=O)NC(=O)NC3=O)cc2)cc1` it is 200 nM. `O=C1NC(=O)C(=Cc2ccc(OCCOc3ccc(Br)cc3)cc2)C(=O)N1` displayed an inhibition in test [1] of less than 20%. On to `O=C1NC(=O)C(=Cc2ccc(OCCOc3ccc([N+](=O)[O-])cc3)cc2)C(=O)N1`, for which the IC50 in test [2] was determined as 2500 nM. As to `O=C1NC(=O)C(=Cc2ccc(OCCOc3ccc4ccccc4c3)cc2)C(=O)N1`, the inhibition in test [1] was less than 20%. The same measure, in the same setting: the figure for `O=C1NC(=O)C(=Cc2ccc(OCCn3ccc4cccnc43)cc2)C(=O)N1` is less than 20%; for `N#Cc1ccc(OCCCOc2ccc(C=C3C(=O)NC(=O)NC3=O)cc2)cc1` it is less than 20%. `O=C1NC(=O)C(=Cc2ccc(OCCn3c4ccccc4c4ccccc43)cc2)C(=O)N1` had an inhibition in test [1] of less than 20%. The same measure, in the same setting: the figure for `O=C1NC(=O)C(=Cc2ccc(OCCOc3ccccn3)cc2)C(=O)N1` is less than 20%.

`O=C1NC(=O)C(=Cc2ccc(Oc3ccccc3)cc2)C(=O)N1`: the concentration for half-maximal inhibition (IC50) in test [2] amounted to 100 nM.
